The target in assay [1] is T1, E. coli K12 PBP3 (Escherichia coli, UniProt P0AD68).
T1 construct: made in house
The experiment in a line: biochemical. It counts as binding. In short, it runs like this: (§1)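 Fluorescence polarization (ex 490/em 520 nm) competition of inhibitors against Bocillin-FL at 0.1 μM, read up to 60 min. Final PBP levels: E. coli PBP3 1.5 μM; A. baumannii PBP2 2.5 μM, PBP3 0.2 μM in Tris pH 8.0/NaCl/glycerol/Tween 20; N. gonorrhoeae PBP2 […] in Hepes pH 8.0/NaCl/glycerol. EC50 = concentration halving PBP-bound Bocillin-FL.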

Assay [2] concerns the target T2, N. gonorrhoeae PBP2 (Neisseria gonorrhoeae, UniProt P08149).
T2 construct: made in house
The experiment in a line: Bocillin-FL fluorescence polarization competition binding assay, N. gonorrhoeae PBP2. The note with it: fluorescence polarization competition binding assay using Bocillin-FL; read-out: N. gonorrhoeae PBP2 Potency. The procedure, abridged: as §1

Some results are limits rather than exact numbers.

T1 sequence (P0AD68 1-577): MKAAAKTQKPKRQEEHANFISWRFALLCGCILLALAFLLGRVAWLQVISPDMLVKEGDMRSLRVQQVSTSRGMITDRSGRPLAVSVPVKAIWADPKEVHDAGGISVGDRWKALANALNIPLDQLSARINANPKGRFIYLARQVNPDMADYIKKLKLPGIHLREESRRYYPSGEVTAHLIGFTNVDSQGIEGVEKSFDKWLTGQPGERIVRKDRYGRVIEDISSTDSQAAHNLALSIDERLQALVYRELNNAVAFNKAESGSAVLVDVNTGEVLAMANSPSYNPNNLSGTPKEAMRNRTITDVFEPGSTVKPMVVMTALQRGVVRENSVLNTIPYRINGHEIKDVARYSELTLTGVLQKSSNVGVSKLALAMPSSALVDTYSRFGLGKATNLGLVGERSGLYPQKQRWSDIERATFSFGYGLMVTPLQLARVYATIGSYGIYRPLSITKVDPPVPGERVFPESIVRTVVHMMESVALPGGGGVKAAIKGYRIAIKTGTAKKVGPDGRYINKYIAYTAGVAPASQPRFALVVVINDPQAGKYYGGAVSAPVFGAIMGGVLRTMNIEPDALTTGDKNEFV
T2 sequence (P08149 whole entry): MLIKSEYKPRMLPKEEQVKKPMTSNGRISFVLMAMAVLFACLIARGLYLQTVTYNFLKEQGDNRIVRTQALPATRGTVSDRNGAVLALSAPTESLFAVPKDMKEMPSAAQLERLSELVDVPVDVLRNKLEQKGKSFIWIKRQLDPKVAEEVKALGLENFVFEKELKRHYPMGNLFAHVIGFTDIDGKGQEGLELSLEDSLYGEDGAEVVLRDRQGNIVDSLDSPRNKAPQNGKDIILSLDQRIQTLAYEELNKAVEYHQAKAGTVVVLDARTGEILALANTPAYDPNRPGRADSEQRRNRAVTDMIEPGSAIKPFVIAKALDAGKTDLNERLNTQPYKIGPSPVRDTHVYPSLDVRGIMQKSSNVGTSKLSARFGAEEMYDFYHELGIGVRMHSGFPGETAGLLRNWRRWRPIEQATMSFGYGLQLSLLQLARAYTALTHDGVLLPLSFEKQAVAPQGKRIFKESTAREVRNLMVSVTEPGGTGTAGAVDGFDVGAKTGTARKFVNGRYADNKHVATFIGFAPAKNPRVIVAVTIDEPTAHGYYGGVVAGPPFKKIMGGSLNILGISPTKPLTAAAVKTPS

Consider `CCN1CCN(C(=O)N[C@@H](C(=O)N[C@H]2Cc3cccc(C(=O)O)c3OB2O)c2c(O)cc(O)cc2F)C(=O)C1=O` (single isomer, unassigned) [Example 182], for which the EC50 in assay [1] is less than 30 µM; in assay [2], greater than 100 µM. Taken in the same sequence, the figures for `NCCN1CCN(C(=O)N[C@@H](C(=O)N[C@H]2Cc3cccc(C(=O)O)c3OB2O)c2ccc(O)c(Cl)c2F)C(=O)C1=O` (single isomer, unassigned) [Example 186] were less than 30 µM and less than 10 µM. As to `NCCN1CCN(C(=O)N[C@H](C(=O)N[C@H]2Cc3cccc(C(=O)O)c3OB2O)c2ccc(O)c(Cl)c2F)C(=O)C1=O` (single isomer, unassigned) [Example 187], the EC50 in assay [1] was in the range of 30 to 500 µM; in assay [2] it was 10 to 30 µM. Taken in the same sequence, the figures for `NCCN1CCN(C(=O)N[C@@H](C(=O)N[C@H]2Cc3cccc(C(=O)O)c3OB2O)c2c(O)cc(O)cc2F)C(=O)C1=O` (single isomer, unassigned) [Example 194] were less than 30 µM and 30 to 100 µM. Taken in the same sequence, the figures for `NCCCN1CCN(C(=O)N[C@@H](C(=O)N[C@H]2Cc3cccc(C(=O)O)c3OB2O)c2c(O)cc(O)cc2F)C(=O)C1=O` (single isomer, unassigned) [Example 195] were less than 30 µM and 10 to 30 µM. The like results for `NCCN1CCN(C(=O)N[C@@H](C(=O)N[C@H]2Cc3cccc(C(=O)O)c3OB2O)c2ccc(O)c([N+](=O)[O-])c2)C(=O)C1=O` (single isomer, unassigned) [Example 199] were, in that order, less than 30 µM and 10 to 30 µM. With `NCCN1CCN(C(=O)N[C@H](C(=O)N[C@H]2Cc3cccc(C(=O)O)c3OB2O)c2ccc(O)c([N+](=O)[O-])c2)C(=O)C1=O` (single isomer, unassigned) [Example 200], the EC50 was greater than 500 µM in assay [1] and greater than 100 µM in assay [2]. The like results for `CCN1CCN(C(=O)N[C@H](C(=O)N[C@H]2Cc3cccc(C(=O)O)c3OB2O)c2ccc(C(=O)O)c(F)c2Cl)C(=O)C1=O` (single isomer, unassigned) [Example 202] were, in that order, 30 to 500 µM and greater than 100 µM.

In the case of `CCN1CCN(C(=O)N[C@@H](C(=O)N[C@H]2Cc3cccc(C(=O)O)c3OB2O)c2ccc(C(=O)O)c(F)c2Cl)C(=O)C1=O` (single isomer, unassigned) [Example 203], the EC50 in assay [1] is less than 30 µM; in assay [2], less than 10 µM. As to `NCCN1CCN(C(=O)N[C@H](C(=O)N[C@H]2Cc3cccc(C(=O)O)c3OB2O)c2c(F)cccc2F)C(=O)C1=O` (single isomer, unassigned) [Example 204], in assay [1], the EC50 was greater than 500 µM. Same read-out and setting: as for `NCCN1CCN(C(=O)N[C@@H](C(=O)N[C@H]2Cc3cccc(C(=O)O)c3OB2O)c2c(F)cccc2Cl)C(=O)C1=O` (single isomer, unassigned) [Example 205], the figure is 30 to 500 µM; as for `NCCN1CCN(C(=O)N[C@H](C(=O)N[C@H]2Cc3cccc(C(=O)O)c3OB2O)c2c(F)cccc2Cl)C(=O)C1=O` (single isomer, unassigned) [Example 206], greater than 500 µM.

Take `NCCCN1CCN(C(=O)NC(C(=O)N[C@H]2Cc3cccc(C(=O)O)c3OB2O)c2c(F)cc(O)cc2F)C(=O)C1=O` (stereo partly drawn) [Example 183, (3R)-3-(2-(4-(3-aminopropyl)-2,3-dioxopiperazine-1-carboxamido)-2-(2,6-difluoro-4-hydroxyphenyl)acetamido)-2-hydroxy-3,4-dihydro-2H-benzo[e][1,2]oxaborinine-8-carboxylic acid]: the EC50 is less than 30 µM in assay [1] and less than 10 µM in assay [2]. Taken in the same sequence, the figures for `CCN1CCN(C(=O)NC(C(=O)N[C@H]2Cc3cccc(C(=O)O)c3OB2O)c2cc([N+](=O)[O-])c(O)cc2F)C(=O)C1=O` (stereo partly drawn) [Example 184, (3R)-3-(2-(4-ethyl-2,3-dioxopiperazine-1-carboxamido)-2-(2-fluoro-4-hydroxy-5-nitrophenyl)acetamido)-2-hydroxy-3,4-dihydro-2H-benzo[e][1,2]oxaborinine-8-carboxylic acid] were less than 30 µM and less than 10 µM. The like results for `CCN1CCN(C(=O)NC(C(=O)N[C@H]2Cc3cccc(C(=O)O)c3OB2O)c2ccc(O)c(Cl)c2F)C(=O)C1=O` (stereo partly drawn) [Example 185, (3R)-3-(2-(3-chloro-2-fluoro-4-hydroxyphenyl)-2-(4-ethyl-2,3-dioxopiperazine-1-carboxamido)acetamido)-2-hydroxy-3,4-dihydro-2H-benzo[e][1,2]oxaborinine-8-carboxylic acid] were, in that order, less than 30 µM and less than 10 µM. In the case of `CCN1CCN(C(=O)NC(C(=O)N[C@H]2Cc3cccc(C(=O)O)c3OB2O)c2c(F)cc(NC(C)=O)cc2F)C(=O)C1=O` (stereo partly drawn) [Example 188, (3R)-3-(2-(4-acetamido-2,6-difluorophenyl)-2-(4-ethyl-2,3-dioxopiperazine-1-carboxamido)acetamido)-2-hydroxy-3,4-dihydro-2H-benzo[e][1,2]oxaborinine-8-carboxylic acid], the results for the EC50 in assay [1] and in assay [2] were less than 30 µM and less than 10 µM, respectively. The like results for `CCN1CCN(C(=O)NC(C(=O)N[C@H]2Cc3cccc(C(=O)O)c3OB2O)c2cc(C#N)c(OC)cc2F)C(=O)C1=O` (stereo partly drawn) [Example 192, (3R)-3-(2-(5-cyano-2-fluoro-4-methoxyphenyl)-2-(4-ethyl-2,3-dioxopiperazine-1-carboxamido)acetamido)-2-hydroxy-3,4-dihydro-2H-benzo[e][1,2]oxaborinine-8-carboxylic acid] were, in that order, 30 to 500 µM and 10 to 30 µM.

`O=C(O)c1cccc2c1OB(O)[C@@H](NC(=O)C(NC(=O)N1CCN(CC3CNC3)C(=O)C1=O)c1c(F)cc(O)cc1F)C2` (stereo partly drawn) [Example 193, (3R)-3-(2-(4-(azetidin-3-ylmethyl)-2,3-dioxopiperazine-1-carboxamido)-2-(2,6-difluoro-4-hydroxyphenyl)acetamido)-2-hydroxy-3,4-dihydro-2H-benzo[e][1,2]oxaborinine-8-carboxylic acid]: the results for the EC50 in assay [1] and in assay [2] were less than 30 µM and 10 to 30 µM, respectively. Take `CCN1CCN(C(=O)NC(C(=O)N[C@H]2Cc3cccc(C(=O)O)c3OB2O)c2ccc(C(=O)O)c(O)c2)C(=O)C1=O` (stereo partly drawn) [Example 196, (3R)-3-(2-(4-carboxy-3-hydroxyphenyl)-2-(4-ethyl-2,3-dioxopiperazine-1-carboxamido)acetamido)-2-hydroxy-3,4-dihydro-2H-benzo[e][1,2]oxaborinine-8-carboxylic acid]: the results for the EC50 in assay [1] and in assay [2] were less than 30 µM and less than 10 µM, respectively. Turning to `CCN1CCN(C(=O)NC(C(=O)N[C@H]2Cc3cccc(C(=O)O)c3OB2O)c2cc(NS(N)(=O)=O)ccc2F)C(=O)C1=O` (stereo partly drawn) [Example 197, (3R)-3-(2-(4-ethyl-2,3-dioxopiperazine-1-carboxamido)-2-(2-fluoro-5-(sulfamoylamino)phenyl)acetamido)-2-hydroxy-3,4-dihydro-2H-benzo[e][1,2]oxaborinine-8-carboxylic acid], the EC50 in assay [1] is less than 30 µM.

For `NS(=O)(=O)Nc1ccc(F)c(C(NC(=O)N2CCN(CCF)C(=O)C2=O)C(=O)N[C@H]2Cc3cccc(C(=O)O)c3OB2O)c1` (stereo partly drawn) [Example 198, (3R)-3-(2-(2-fluoro-5-(sulfamoylamino)phenyl)-2-(4-(2-fluoroethyl)-2,3-dioxopiperazine-1-carboxamido)acetamido)-2-hydroxy-3,4-dihydro-2H-benzo[e][1,2]oxaborinine-8-carboxylic acid], the EC50 in assay [1] was less than 30 µM. With `CCN1CCN(C(=O)NC(C(=O)N[C@H]2Cc3cccc(C(=O)O)c3OB2O)c2ccc(C(=O)O)c(Cl)c2Cl)C(=O)C1=O` (stereo partly drawn) [Example 201, (3R)-3-(2-(4-carboxy-2,3-dichlorophenyl)-2-(4-ethyl-2,3-dioxopiperazine-1-carboxamido)acetamido)-2-hydroxy-3,4-dihydro-2H-benzo[e][1,2]oxaborinine-8-carboxylic acid], the EC50 was less than 30 µM in assay [1] and 10 to 30 µM in assay [2]. Molecule `CCN1CCN(C(=O)NC(C(=O)N[C@H]2Cc3cccc(C(=O)O)c3OB2O)c2cc(C#N)c(O)cc2F)C(=O)C1=O` (stereo partly drawn) [Example 209, (3R)-3-(2-(5-cyano-2-fluoro-4-hydroxyphenyl)-2-(4-ethyl-2,3-dioxopiperazine-1-carboxamido)acetamido)-2-hydroxy-3,4-dihydro-2H-benzo[e][1,2]oxaborinine-8-carboxylic acid] registered an EC50 in assay [1] of less than 30 µM. The same measure, in the same setting: as for `O=C(O)c1cccc2c1OB(O)[C@@H](NC(=O)C(NC(=O)N1CCN(C3CNC3)C(=O)C1=O)c1c(F)cc(O)cc1F)C2` (stereo partly drawn) [Example 212, (3R)-3-(2-(4-(azetidin-3-yl)-2,3-dioxopiperazine-1-carboxamido)-2-(2,6-difluoro-4-hydroxyphenyl)acetamido)-2-hydroxy-3,4-dihydro-2H-benzo[e][1,2]oxaborinine-8-carboxylic acid], the figure is less than 30 µM; as for `CCN1CCN(C(=O)NC(C(=O)N[C@H]2Cc3cccc(C(=O)O)c3OB2O)c2c(F)cc(NC(=O)NC)cc2F)C(=O)C1=O` (stereo partly drawn) [Example 213, (3R)-3-(2-(2,6-difluoro-4-(3-methylureido)phenyl)-2-(4-ethyl-2,3-dioxopiperazine-1-carboxamido)acetamido)-2-hydroxy-3,4-dihydro-2H-benzo[e][1,2]oxaborinine-8-carboxylic acid], less than 30 µM.
